System: male ICR mice
Assay: Formalin Paw Test
Assay type: in vivo
Conditions: 30 mg/kg intraperitoneal; for Early Phase: early/acute phase (0-10 minutes) after 2% formalin into hind paw; for Late Phase: late/tonic phase (10-35 minutes) after 2% formalin into hind paw
Protocol: One test compound or the vehicle was administered to each mouse in each test group (8 mice per group). Non-fasted male ICR mice weighing 23±3 g were used. Test compounds were administered at a concentration of 3 mg/kg, 10 mg/kg, 15 mg/kg, 30 mg/kg, 60 mg/kg, 100 mg/kg, 200 mg/kg or 300 mg/kg; morphine was administered at a concentration of 5 mg/kg; and acetaminophen was administered at a concentration of 200 mg/kg. The control group received the vehicle (5% DMSO/40% PEG400/20% HPbCD/Saline). After 30 or 60 minutes, a 2% formalin solution (0.02 mL) was injected into one hind paw (sub-plantar) of each mouse. Responses were measured every 5 minutes after the formalin injection for 35 minutes.
The results in Table A are for intraperitoneal administration. In Table A, ‘A’ designates <70 licks/sec, ‘B’ designates ≥70 licks/sec and <165 licks/sec, and ‘C’ designates ≥165 licks/sec.

Structure (SMILES)	Early Phase	Late Phase
NC1CC2(COC2)C1 [Compound I-1]	B (‘B’ designates ≥70 licks/sec and <165 licks/sec)	B (‘B’ designates ≥70 licks/sec and <165 licks/sec)
NC1CCCOCC1 (stereo not shown) [Compound I-4]	B (‘B’ designates ≥70 licks/sec and <165 licks/sec)	C (‘C’ designates ≥165 licks/sec)
